Results from patent US9976141B2, “Compositions and methods for inhibiting gene expression of Hif2alpha” (Arrowhead Madison Inc., priority 2015, dated 2018).
Strand notation (5' to 3'): a small letter for the sugar, then the base; units joined by * are phosphorothioate-linked, units joined directly phosphodiester-linked; [ ] holds rarer units or linkages, { } end groups; capitals alone tell only the bases. d = 2'-deoxy (DNA); m = 2'-O-methyl; f = 2'-fluoro

Test system: human EPAS1 (Hif2α) cDNA in psiCHECK2 (Renilla luciferase/EPAS1 fusion mRNA) in Hep3B cells
Test: Efficacy screen of Hif2α RNAi triggers in vitro, dual-luciferase reporter assay (1 nM and 0.1 nM)
Type: cell-based
Conditions: Hep3B cells co-transfected with EPAS1-psiCHECK2, Renilla luciferase normalized to firefly luciferase
Excerpt: Candidate sequences were identified by in silico analysis and screened as chemically modified canonical siRNAs in vitro. For screening purposes, the human EPAS1 (Hif2α) cDNA sequence (accession #NM 001430) was synthesized and cloned (DNA 2.0, Menlo Park, Calif.) into a commercially-available reporter-based screening plasmid, psiCHECK2 (Promega, Madison, Wis.) which generated a Renilla luciferase/EPAS1 fusion mRNA. For RNAi trigger efficacy evaluation, Hep3B cells, a human hepatocellular carcinoma line, were plated at 10,000 cells per well in 96-well format. Each of the 187 EPAS1 RNAi triggers, in two subsets, was co-transfected at two concentrations, 1 nM and 0.1 nM, with 25 ng EPAS1-psiCHECK2 plasmid DNA per well and 0.2 μL LipoFectamine 2000 (Life Technologies) per well. Gene knockdown was determined by measuring Renilla luciferase levels normalized to the levels of constitutively-expressed firefly luciferase, also present on the psiCHECK-2 plasmid, using the Dual Luciferase Reporter Assay (Promega, Madison, Wis.) Table 5.

| Substance | Relative Rluc-Hif2α (0.1 nM RNAi trigger) | Relative Rluc-Hif2α (1 nM RNAi trigger) |
| --- | --- | --- |
| 2236 (sense fCmAfGmGfUmGfCmUfCmGfGmCfGmUfCmUfGmAfAdT; antisense dTfUmCfAmGfAmCfGmCfCmGfAmGfCmAfCmCfUmGdT*dT; siRNA) [compound 2236] | 0.693 ± 0.071 | 0.761 ± 0.042 |
| 2270 (sense fUmGfAmAfUmUfCmUfAmCfCmAfUmGfCmGfCmUfAdT; antisense dTfAmGfCmGfCmAfUmGfGmUfAmGfAmAfUmUfCmAdT*dT; siRNA) [compound 2270] | 0.658 ± 0.149 | 0.613 ± 0.147 |
| 2241 (sense fAmAfAmAfGmGfAmGfUmAfGmCfUmCfGmGfAmGfAdT; antisense dTfCmUfCmCfGmAfGmCfUmAfCmUfCmCfUmUfUmUdT*dT; siRNA) [compound 2241] | 0.385 ± 0.028 | 0.270 ± 0.068 |
| 2369 (sense fGmCfGmGfGmGfAmAfGmUfGmCfUmCfUmAfAmCfAdT; antisense dTfGmUfUmAfGmAfGmCfAmCfUmUfCmCfCmCfGmCdT*dT; siRNA) [compound 2369] | 0.464 ± 0.032 | 0.338 ± 0.055 |
| 2363 (sense fUmAfUmUfGmCfUmGfCmCfAmAfGmAfGmGfGmUfAdT; antisense dTfAmCfCmCfUmCfUmUfGmGfCmAfGmCfAmAfUmAdT*dT; siRNA) [compound 2363] | 0.653 ± 0.199 | 0.452 ± 0.091 |
| 2357 (sense fGmGfUmGfUmGfAmCfAmAfUmCfCmGfAmGfCmAfAdT; antisense dTfUmGfCmUfCmGfGmAfUmUfGmUfCmAfCmAfCmCdT*dT; siRNA) [compound 2357] | 0.737 ± 0.082 | 0.435 ± 0.062 |
| 2324 (sense fGmGfAmCfUmAfCmAfGmCfCmUfGmUfCmGfUmCfAdT; antisense dTfGmAfCmGfAmCfAmGfGmCfUmGfUmAfGmUfCmCdT*dT; siRNA) [compound 2324] | 1.081 ± 0.293 | 1.046 ± 0.208 |
| 2382 (sense fGmGfGmUfAmAfGmAfGmGfGmAfCmGfAmCfAmCfAdT; antisense dTfGmUfGmUfCmGfUmCfCmCfUmCfUmUfAmCfCmCdT*dT; siRNA) [compound 2382] | 1.070 ± 0.064 | 1.151 ± 0.365 |
| 2303 (sense fGmAfUmGfCmCfGmGfAmAfGmCfAmAfAmGfCmAfAdT; antisense dTfUmGfCmUfUmUfGmCfUmUfCmCfGmGfCmAfUmCdT*dT; siRNA) [compound 2303] | 0.414 ± 0.002 | 0.294 ± 0.034 |
| 2373 (sense fGmAfGmCfUmAfUmGfUmGfAmCfUmCfGmGfAmUfAdT; antisense dTfAmUfCmCfGmAfGmUfCmAfCmAfUmAfGmCfUmCdT*dT; siRNA) [compound 2373] | 0.369 ± 0.082 | 0.162 ± 0.032 |
| 2289 (sense fUmUfUmGfAmUfAmGfCmAfGmUfGmGfCmAfAmGfAdT; antisense dTfCmUfUmGfCmCfAmCfUmGfCmUfAmUfCmAfAmAdT*dT; siRNA) [compound 2289] | 0.992 ± 0.153 | 1.039 ± 0.146 |
| 2325 (sense fGmAfCmUfAmCfAmGfCmCfUmGfUmCfGmUfCmAfAdT; antisense dTfUmGfAmCfGmAfCmAfGmGfCmUfGmUfAmGfUmCdT*dT; siRNA) [compound 2325] | 1.304 ± 0.134 | 1.379 ± 0.275 |
| 2288 (sense fUmAfCmAfAmCfCmCfUmCfGmCfAmAfCmCfUmGfAdT; antisense dTfCmAfGmGfUmUfGmCfGmAfGmGfGmUfUmGfUmAdT*dT; siRNA) [compound 2288] | 0.943 ± 0.029 | 0.932 ± 0.118 |
| 2308 (sense fAmUfUmUfUmGfGmGfCmCfCmAfCmAfAmAfGmUfAdT; antisense dTfAmCfUmUfUmGfUmGfGmGfCmCfCmAfAmAfAmUdT*dT; siRNA) [compound 2308] | 0.799 ± 0.084 | 0.998 ± 0.059 |
| 2242 (sense fGmGfGmUfUmUfCmAfUmUfGmCfCmGfUmGfGmUfAdT; antisense dTfAmCfCmAfCmGfGmCfAmAfUmGfAmAfAmCfCmCdT*dT; siRNA) [compound 2242] | 0.411 ± 0.019 | 0.222 ± 0.064 |
| 2400 (sense fCmUfAmCfCmUfGmUfCmAfAmCfGmUfAmAfCmGfAdT; antisense dTfCmGfUmUfAmCfGmUfUmGfAmCfAmGfGmUfAmGdT*dT; siRNA) [compound 2400] | 0.478 ± 0.028 | 0.165 ± 0.020 |
| 2371 (sense fUmUfAmAfGmGfUmUfUmUfGmUfUmGfCmUfAmGfAdT; antisense dTfCmUfAmGfCmAfAmCfAmAfAmAfCmCfUmUfAmAdT*dT; siRNA) [compound 2371] | 0.193 ± 0.030 | 0.166 ± 0.037 |

| Substance | Relative Rluc-Hif2α (0.1 nM RNAi trigger) | Relative Rluc-Hif2α (1 nM RNAi trigger) |
| --- | --- | --- |
| 2277 (sense fUmAfAmGfUmGfGmCfCmAfGmUfAmCfCmGfGmAfAdT; antisense dTfUmCfCmGfGmUfAmCfUmGfGmCfCmAfCmUfUmAdT*dT; siRNA) [compound 2277] | 0.625 ± 0.384 | 0.702 ± 0.091 |
| 2416 (sense fUmUfGmAfCmAfCmUfGmGfUmAfUmCfUmUfAmUfAdT; antisense dTfAmUfAmAfGmAfUmAfCmCfAmGfUmGfUmCfAmAdT*dT; siRNA) [compound 2416] | 0.247 ± 0.031 | 0.166 ± 0.031 |
| 2358 (sense fAmCfAmAfUmCfCmGfAmGfCmAfGmUfGmGfAmGfAdT; antisense dTfCmUfCmCfAmCfUmGfCmUfCmGfGmAfUmUfGmUdT*dT; siRNA) [compound 2358] | 0.647 ± 0.113 | 0.731 ± 0.123 |
| 2380 (sense fCmCfAmAfGmCfUmCfAmCfGmAfCmCfUmUfGmGfAdT; antisense dTfCmCfAmAfGmGfUmCfGmUfGmAfGmCfUmUfGmGdT*dT; siRNA) [compound 2380] | 1.128 ± 0.285 | 1.722 ± 0.101 |
| 2351 (sense fGmUfCmGfGmCfUmUfUmUfUmGfCmCfAmUfCmUfAdT; antisense dTfAmGfAmUfGmGfCmAfAmAfAmAfGmCfCmGfAmCdT*dT; siRNA) [compound 2351] | 1.216 ± 0.415 | 1.306 ± 0.216 |
| 2417 (sense fAmAfGmUfAmUfUmCfUmGfAmUfCmCfUmAfCmCfAdT; antisense dTfGmGfUmAfGmGfAmUfCmAfGmAfAmUfAmCfUmUdT*dT; siRNA) [compound 2417] | 0.295 ± 0.057 | 0.253 ± 0.037 |
| 2273 (sense fUmCfUmAfCmCfAmUfGmCfGmCfUmAfGmAfCmUfAdT; antisense dTfAmGfUmCfUmAfGmCfGmCfAmUfGmGfUmAfGmAdT*dT; siRNA) [compound 2273] | 0.574 ± 0.033 | 0.588 ± 0.057 |
| 2300 (sense fCmUfGmUfAmGfCmCfCmCfGmCfAmCfAmGfUmCfAdT; antisense dTfGmAfCmUfGmUfGmCfGmGfGmGfCmUfAmCfAmGdT*dT; siRNA) [compound 2300] | 1.090 ± 0.106 | 0.786 ± 0.181 |
| 2398 (sense fCmCfCmUfAmCfCmUfGmUfCmAfAmCfGmUfAmAfAdT; antisense dTfUmUfAmCfGmUfUmGfAmCfAmGfGmUfAmGfGmGdT*dT; siRNA) [compound 2398] | 1.047 ± 0.047 | 0.534 ± 0.043 |
| 2402 (sense fAmCfCmUfGmUfCmAfAmCfGmUfAmAfCmGfAmUfAdT; antisense dTfAmUfCmGfUmUfAmCfGmUfUmGfAmCfAmGfGmUdT*dT; siRNA) [compound 2402] | 0.389 ± 0.060 | 0.128 ± 0.015 |
| 2344 (sense fUmCfCmAfAmCfGmUfAmUfGmUfGmGfUmUfAmUfAdT; antisense dTfAmUfAmAfCmCfAmCfAmUfAmCfGmUfUmGfGmAdT*dT; siRNA) [compound 2344] | 0.570 ± 0.071 | 0.276 ± 0.033 |
| 2415 (sense fUmGfUmAfUmGfGmGfAmGfCmUfUmAfAmCfUmUfAdT; antisense dTfAmAfGmUfUmAfAmGfCmUfCmCfCmAfUmAfCmAdT*dT; siRNA) [compound 2415] | 0.180 ± 0.097 | 0.119 ± 0.015 |
| 2249 (sense fGmGfAmCfAmUfAmGfUmAfUmCfUmUfUmGfAmCfAdT; antisense dTfGmUfCmAfAmAfGmAfUmAfCmUfAmUfGmUfCmCdT*dT; siRNA) [compound 2249] | 0.303 ± 0.042 | 0.190 ± 0.028 |
| 2335 (sense fAmGfUmAfCmAfCmAfAmUfUmGfUmUfUmUfAmCfAdT; antisense dTfGmUfAmAfAmAfCmAfAmUfUmGfUmGfUmAfCmUdT*dT; siRNA) [compound 2335] | 0.311 ± 0.032 | 0.104 ± 0.013 |
| 2307 (sense fAmGfAmUfCmCfAmCfCmAfUmUfAmCfAmUfUmUfAdT; antisense dTfAmAfAmUfGmUfAmAfUmGfGmUfGmGfAmUfCmUdT*dT; siRNA) [compound 2307] | 0.800 ± 0.248 | 0.702 ± 0.142 |
| 2256 (sense fGmCfGmGfGmAfCmUfUmCfUmUfCmAfUmGfAmGfAdT; antisense dTfCmUfCmAfUmGfAmAfGmAfAmGfUmCfCmCfGmCdT*dT; siRNA) [compound 2256] | 0.796 ± 0.028 | 0.765 ± 0.124 |
